Laboratory results: US6936447B1, “Autoinducer molecule” (priority 2000, dated 2005)
Read-outs that look alike come from different tables or passages of the source.

Legend:
[1] = test system: conjugal transfer genes in Agrobacterium tumefaciens; conditions: literature (Zhang et al. 1993); cited from earlier work
[2] = test system: lasB promoter activity in E. coli MG4 (pKDT17, lasR + lasB::lacZ); assay: P. aeruginosa autoinducer bioassay (lasB::lacZ β-galactosidase reporter); format: cell-based; conditions: for β-galactosidase (lasB::lacZ promoter activity): average of four experiments ± range
Protocol: (§1) For production of PAI, cultures of P. aeruginosa PAO1 or E. coli TB1 containing pLasI-1 were grown to the late-logarithmic phase in A medium (Maniatis, T., Fritsch, E. F., and Sambrook, J. (1992) Molecular Cloning: A Laboratory Manual, ed. Nolan C. (Cold Spring Harbor Laboratory, Cold Spring Harbor, N.Y.), 2nd Ed) supplemented with 0.4% glucose, 0.05% yeast extract, and 1 mM MgSO4 with shaking at 37° C., unless otherwise specified. For subsequent use in autoinducer bioassays, E. coli MG4 containing pKDT17 was grown in supplemented A medium at 30° C. with shaking, and E. coli VJS533 containing pHV200I^− was grown in L broth (Silhavy, T. J., Berman, M. L. and Enquist, L. W. (1984) Experiments with Gene Fusions (Cold Spring Harbor Lab., Cold Spring Harbor, N.Y.), P. 217) at 30° C. with shaking. For plasmid screening and maintenance, ampicillin (100 μg/ml) was included in E. coli cultures, and carbenicillin (200 ug/ml) was included in cultures of P. aeruginosa.
For the bioassay, overnight cultures of E. coli containing the lasB-promoter reporter, pKDT17 were diluted in supplemented A mediun to an optical density of 0.1 at 660 nm, and stored on ice. Each bioassay consisted of 2 ml of the cell suspension plus the test sample. After 5.5 h at 30° C. with shaking, β-galactosidase activity was measured by the CHCl3-sodium dodecyl sulfate method described by Miller (Miller, J. A. (1976) Experiments in Molecular Genetics (Cold Spring Harbor Lab., Cold Spring Harbor, N.Y.), pp. 352-355). As described in Example 1, there was a linear dose response to autoinducer in this bioassay. Without addition of autoinducer, β-galactosidase activities were 25±10 Miller units, and with saturating amounts of autoinducer, β-galactosidase activities were 1300±200 Miller units. A unit of P. aeruginosa autoinducer activity is defined as that amount required to achieve ½-saturation in the bioassay.

[3] = test system: V. fischeri luminescence genes (LuxR) in E. coli VJS533 (pHV200I−); conditions: literature (Eberhard et al. 1986), cited from earlier work
[4] = test system: V. fischeri luminescence genes (LuxR) in E. coli VJS533 (pHV200I−); assay: V. fischeri autoinducer bioassay (luminescence); format: cell-based
Protocol: as §1
The quantitative assay for VAI was based on those described elsewhere (Kaplan, H. B. and Greenberg, E. P. (1985) J. Bacteriol. 163, 1210-1214; Bainton, N. J., Bycroft, B. W., Chhabra, S. R., Stead, P., Gledhill, L., Hill, P. J., Rees, C. E. D., Winson, M. K., Salmond, G. P. C., Stewart, G. S. A. B. and Williams, P. (1992) Gene 116, 87-91; Nealson, K. H. (1977) Arch. Microbiol. 112, 73-79). E. coli VJS533 containing pHV200I^− was used to test for V. fischeri autoinducer activity. The plasmid, pHV200I^− contains all of the V. fischeri genes necessary for autoinducible luminescence in E. coli, however, the gene encoding autoinducer synthase, luxI, is inactivated such that E. coli containing pHV200I^− is not luminescent without addition of VAI. Overnight cultures of E. coli containing pHV200I^− were diluted to an optical density of 0.01 at 660 nm in an assay medium consisting of 0.05% tryptone, 0.03% glycerol, 100 mM NaCl, 50 mM MgSO4, and 10 mM potassium phosphate, pH 7. […] After 3 hours at room temperature, luminescence was measured by using a Beckman LS 1800 Scintillation Counter that was set for single photon counting. […]

[5] = target: T1, LasR protein (Pseudomonas aeruginosa, UniProt P25084); assay: Activation of the LasR protein by optical isomers
T1 construct: expressed in transfected cells; host or cells: E. coli MG4 containing pKDT17 (plac-lasR plus lasB::lacZ reporter)
T1 sequence (P25084 whole entry): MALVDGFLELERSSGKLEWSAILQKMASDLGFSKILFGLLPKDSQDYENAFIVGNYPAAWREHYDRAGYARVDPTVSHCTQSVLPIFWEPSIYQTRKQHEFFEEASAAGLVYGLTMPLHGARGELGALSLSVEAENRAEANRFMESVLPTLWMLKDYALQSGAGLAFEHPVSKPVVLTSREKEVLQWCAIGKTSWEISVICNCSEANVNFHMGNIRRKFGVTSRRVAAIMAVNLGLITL

Structure (SMILES): CCCCCC(=O)CC(=O)NC1CCOC1=O (centres unmarked) [AAI, N-(3-oxooctanoyl)homoserine lactone]
- activity as the A. tumefaciens autoinducer [1]: shows activity
- activity as P. aeruginosa autoinducer (inducer of lasB promoter), in words [2]: considerable activity
- β-galactosidase (lasB::lacZ promoter activity) ([2]; 50 nM autoinducer added): 56 +/− 5 Miller units
- β-galactosidase (lasB::lacZ promoter activity) ([2]; 500 nM autoinducer added): 733 +/− 50 Miller units
- concentration required for activity as the P. aeruginosa autoinducer, compared with PAI ([2]; relative to PAI): higher
- maximal response as P. aeruginosa autoinducer, compared with PAI ([2]; relative to PAI): lower
- activity with V. fischeri LuxR / luminescence genes [3]: shows activity
- activity with V. fischeri LuxR / luminescence genes ([3]; listed as N-(3-oxooctanoyl)homoserine lactone): some activity

Structure (SMILES): CCCCCCCCCC(=O)CC(=O)NC1CCOC1=O [N-(3-oxododecanoyl) L-homoserine lactone, N-(3-oxododecanoyl)homoserine lactone]
- activity as P. aeruginosa autoinducer (inducer of lasB promoter), in words [2]: biologically active
- EC50 ([2]; Escherichia coli, read-out: half-maximal response in P. aeruginosa autoinducer bioassay): 0.003 to 0.005 µM
- VAI activity (induction of luminescence) of HPLC peaks ([4]; HPLC fractions of PAI peaks): no significant VAI activity
- activity of the isomer (activation of the LasR protein) [5]: active form

Structure (SMILES): CCCC(=O)CC(=O)N[C@H]1CCOC1=O [VAI, N-(3-oxohexanoyl)homoserine lactone]
- activity as P. aeruginosa autoinducer (inducer of lasB promoter), in words [2]: did not show any detectable activity
- β-galactosidase (lasB::lacZ promoter activity) ([2]; 50 nM autoinducer added): 33 +/− 3 Miller units
- β-galactosidase (lasB::lacZ promoter activity) ([2]; 500 nM autoinducer added): 34 +/− 1 Miller units
- activity in the P. aeruginosa autoinducer bioassay ([2]; concentrations as high as 1 uM): no detectable activity
- concentration giving maximal response in the V. fischeri autoinducer bioassay [4]: about 50 nM
- EC50 ([4]; synthetic VAI standard curve, read-out: half-maximal response in V. fischeri autoinducer bioassay (one unit of activity)): ~0.025 µM

Structure (SMILES): CCCCCCCCCC(=O)CC(=O)N[C@H]1CCOC1=O (single isomer, unassigned) [D-isomer, N-(3-oxododecanoyl)homoserine lactone]
- activity of the isomer (activation of the LasR protein) [5]: small amount of activity
- inhibition of the ability of the L-isomer to activate the LasR protein ([5]; by attaching to the autoinducer binding domain of LasR): can inhibit
